We go through one molecule from publication PMC7114883 (ACS Omega, 2020).

pIC50: −log10 of the molar value. Where only a bound is given, the exact number is not on record here.

One series in a line: Solubility at pH 6.8. Type of series: physicochemical. Particulars: pH 6.8, aqueous buffer.
Series [1] can be described thus: In vitro metabolic stability in mouse liver microsomes. Type of series: in vitro ADME. (In general: Liver microsomes are vesicles of endoplasmic reticulum, rich in cytochrome P450 enzymes.)
Series [2] is described as follows: PAMPA parallel artificial membrane permeability assay. In kind it is in vitro ADME. Particulars: fraction absorbed. A general note: The PAMPA barrier holds no transporters, so it reflects passive diffusion.
The subject of the next series is P. falciparum NF54. In words: Pf NF54 activity determined at NITD. In kind it is cell-based. Particulars: Plasmodium falciparum, NF54, read-out: IC50 PfNF54.
A further series addresses hERG channel (Homo sapiens, UniProt Q12809). In words: hERG channel inhibition. Type of series: biochemical. In general terms: Block of hERG is tested as a sign of cardiac risk.
Series [3] is described as follows: In vitro metabolic stability in human liver microsomes. In kind it is in vitro ADME.

Chain of hERG channel (Q12809 whole entry): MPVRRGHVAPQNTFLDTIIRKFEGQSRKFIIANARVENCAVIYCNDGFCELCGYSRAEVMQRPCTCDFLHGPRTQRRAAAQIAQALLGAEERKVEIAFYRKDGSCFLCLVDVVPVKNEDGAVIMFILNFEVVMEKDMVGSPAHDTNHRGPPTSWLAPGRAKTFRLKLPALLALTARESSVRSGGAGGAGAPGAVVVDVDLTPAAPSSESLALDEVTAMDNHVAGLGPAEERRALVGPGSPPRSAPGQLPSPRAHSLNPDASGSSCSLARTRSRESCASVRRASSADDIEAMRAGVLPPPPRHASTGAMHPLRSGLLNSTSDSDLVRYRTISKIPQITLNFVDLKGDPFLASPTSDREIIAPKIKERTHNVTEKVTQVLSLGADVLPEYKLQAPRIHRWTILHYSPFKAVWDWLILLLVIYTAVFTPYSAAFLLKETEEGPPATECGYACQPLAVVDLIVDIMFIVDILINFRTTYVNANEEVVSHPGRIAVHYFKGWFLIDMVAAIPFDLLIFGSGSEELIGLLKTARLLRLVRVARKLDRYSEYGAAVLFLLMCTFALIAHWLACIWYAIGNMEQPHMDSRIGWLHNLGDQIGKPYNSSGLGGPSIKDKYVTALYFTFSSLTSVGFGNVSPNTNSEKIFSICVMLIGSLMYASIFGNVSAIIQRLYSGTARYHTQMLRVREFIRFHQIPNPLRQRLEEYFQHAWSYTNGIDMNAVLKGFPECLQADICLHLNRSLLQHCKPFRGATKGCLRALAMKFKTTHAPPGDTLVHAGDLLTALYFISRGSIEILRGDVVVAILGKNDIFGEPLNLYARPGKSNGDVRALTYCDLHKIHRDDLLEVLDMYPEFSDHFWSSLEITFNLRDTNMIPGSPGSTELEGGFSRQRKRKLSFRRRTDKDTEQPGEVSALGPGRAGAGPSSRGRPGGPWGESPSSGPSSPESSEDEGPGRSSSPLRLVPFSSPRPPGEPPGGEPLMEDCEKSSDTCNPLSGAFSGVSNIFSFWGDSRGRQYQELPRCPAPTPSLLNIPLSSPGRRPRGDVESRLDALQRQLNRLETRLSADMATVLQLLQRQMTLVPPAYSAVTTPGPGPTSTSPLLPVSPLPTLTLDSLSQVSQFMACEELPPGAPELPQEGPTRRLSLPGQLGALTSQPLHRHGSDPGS

In general, solubility refers to how much of the substance goes into solution per volume. Read a low solubility as little dissolved substance. One may read the pIC50 as the negative decadic logarithm of the IC50, by convention in mol/L. For the molecule `c1ccc(Cn2c(N3CCNCC3)nc3ccccc32)cc1` [Compound 1, Lerisetron, reference compound], the solubility in “Solubility at pH 6.8” is above 1000 µM. Besides, the “In vitro metabolic stability in liver microsomes, mouse” value in series [1] came to 29 µL/min/mg. The “PAMPA (%FA)” value in series [2] worked out at 99 %FA. The pIC50 in the series on P. falciparum NF54 is 6.09; against hERG channel it was 6.49. The “In vitro metabolic stability in liver microsomes, human” value in series [3] is 26.6 µL/min/mg.
